Data reported in patent publication US11814444B2, “Cyclic polypeptides for PCSK9 inhibition” (Ra Pharmaceuticals, Inc., priority 2018, dated 2023).
Numbered stars: 1 amine (or outer) side, 2 acyl side, 3 side chain; on linkers, the order of the positions; unused ones are H or OH. Bridge positions count the residues as written; N and C are the ends. Square brackets hold non-standard residues; d marks the D form. Peptide text beside a SMILES is read from it. Trp(7-aza) = N[C@@H](Cc1c[nH]c2ncccc12)C(=O)O; X8 = O=C([C@H](Cc1ccc2[nH]ncc2c1)N[*:1])[*:2]; Gly(piperidin-4-yl) = N[C@H](C(=O)O)C1CCNCC1; Phe(4-F) = N[C@@H](Cc1ccc(F)cc1)C(=O)O; mXylylene = c1cc(C[*:1])cc(C[*:2])c1; pXylylene = c1cc(C[*:2])ccc1C[*:1]; Ala(cPr) = N[C@@H](CC1CC1)C(=O)O; 2Pal = N[C@@H](Cc1ccccn1)C(=O)O; 3Pal = N[C@@H](Cc1cccnc1)C(=O)O; Tle = CC(C)(C)[C@H](N)C(=O)O; Nva = CCC[C@H](N)C(=O)O; Aib = CC(C)(N)C(=O)O; Mpa = O=C(O)CCS

molecular target: human PCSK9 / human LDLR EGFa domain interaction (Homo sapiens, UniProt Q8NBP7); experiment: TR-FRET assay of inhibition of the PCSK9-LDLR protein-protein interaction; assay type: binding; conditions: 20 nM avitag-biotinylated human PCSK9, 20 nM his-tagged human LDLR EGFa domain, 2 hours, room temperature
Sequence (Q8NBP7 153-692): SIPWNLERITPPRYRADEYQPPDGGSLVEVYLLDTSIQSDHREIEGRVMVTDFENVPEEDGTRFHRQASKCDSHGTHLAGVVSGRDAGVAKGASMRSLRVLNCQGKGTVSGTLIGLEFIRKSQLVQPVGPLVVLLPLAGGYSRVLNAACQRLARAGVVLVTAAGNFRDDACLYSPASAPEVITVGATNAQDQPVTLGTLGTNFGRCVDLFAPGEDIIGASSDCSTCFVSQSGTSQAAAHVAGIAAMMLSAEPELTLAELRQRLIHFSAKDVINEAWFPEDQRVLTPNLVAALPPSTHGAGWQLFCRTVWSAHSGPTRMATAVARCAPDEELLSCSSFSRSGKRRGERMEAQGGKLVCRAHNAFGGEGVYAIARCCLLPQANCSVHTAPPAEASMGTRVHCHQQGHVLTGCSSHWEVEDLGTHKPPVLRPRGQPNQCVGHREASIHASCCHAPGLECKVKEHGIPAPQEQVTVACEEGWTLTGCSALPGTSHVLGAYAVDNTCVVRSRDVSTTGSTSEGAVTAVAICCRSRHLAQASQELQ
Sequence (Q8NBP7 31-152 partner limits assumed): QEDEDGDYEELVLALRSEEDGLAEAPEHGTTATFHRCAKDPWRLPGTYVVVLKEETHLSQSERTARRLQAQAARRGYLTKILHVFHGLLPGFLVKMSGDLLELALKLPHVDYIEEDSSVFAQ
Summary of the method: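 20 nM biotin-avitag PCSK9 + 20 nM His-LDLR EGFa; 5 nM Ulight-SA / 5 nM Eu-anti-His; 2 h RT; HEPES 50 mM, NaCl 150 mM, CaCl2 5 mM, 0.01% BSA, 0.01% P20. Half-maximal inhibition, 4-parameter fit.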

| IC50 [µM] | SMILES |
| --- | --- |
| 1 to 21 | CCC[C@@H]1NC(=O)[C@H](Cc2c[nH]c3ncccc23)NC(=O)[C@H]([C@@H](C)O)NC(=O)[C@H](Cc2c[nH]cn2)NC(=O)[C@H](Cc2ccc(O)cc2)NC(=O)[C@H](C(C)(C)C)NC(=O)CCSCc2cccc(c2)CSC[C@@H](C(N)=O)NC(=O)[C@H]([C@@H](C)O)NC(=O)[C@H](C2CCNCC2)NC(=O)[C@H](Cc2ccc(O)cc2)NC(=O)[C@H](CCC(=O)O)NC1=O [Compound 331] ([Mpa][Tle]YHT[Trp(7-aza)][Nva]EY[Gly(piperidin-4-yl)]TC-NH2; linker 1-12 via mXylylene) |
| 1 to 21 | CCC[C@@H]1NC(=O)[C@H](Cc2c[nH]c3ncccc23)NC(=O)[C@H]([C@@H](C)OC)NC(=O)[C@H](Cc2c[nH]cn2)NC(=O)[C@H](Cc2ccc(O)cc2)NC(=O)[C@H](C(C)(C)C)NC(=O)CCSCc2cccc(c2)CSC[C@@H](C(N)=O)NC(=O)[C@H]([C@@H](C)O)NC(=O)[C@H](CCC)NC(=O)[C@H](Cc2ccc(O)cc2)NC(=O)[C@H](CCC(=O)O)NC1=O [Compound 333] ([Mpa][Tle]YHT(Me)[Trp(7-aza)][Nva]EY[Nva]TC-NH2; linker 1-12 via mXylylene) |

molecular target: PCSK9 (Homo sapiens, UniProt Q8NBP7); experiment: PCSK9 Alexa FRET Standard assay (displacement of AlexaFluor647 tagged cyclic peptide Reagent A); assay type: binding; conditions: 0.5 nM PCSK9, 20 nM AF cyclic peptide Reagent A
Sequence (Q8NBP7 153-692): as the sequence (Q8NBP7 153-692) above
Experimental: A solution containing 1 nM biotinylated PCSK9+2.5 nM Lance Streptavidin Europium (Strep-Eu) was made in 50 mM HEPES pH 7.4, 0.15 M NaCl, 5 mM CaCl2), 0.01% BSA, and 0.01% Surfactant P20. A separate solution containing 40 nM of the AlexaFluor tagged cyclic peptide was made in the same buffer system. An Echo was used to transfer 0.750 ul of compound to an assay plate followed by the addition of 15 ul of PCSK9+Stept-Eu and 15 ul of AF peptide. The final assay volume was 30.750 ul containing 0.5 nM PCSK9, 1.25 nM Strep-Eu, and 20 nM AF cyclic peptide. The reaction was incubated at room temperature for at least two hours prior to fluorescence measurements using an Envision Multilabel Reader. IC50 values were determined by fitting data to a sigmoidal dose-response curve using nonlinear regression. Ki was then calculated from the IC50 and the KD of AF cyclic peptide. Counts (B-counts) of the europium-labeled PCSK9 were followed to observe if compounds were […]. A fall off of the B-counts likely indicated a false positive of inhibition. Data from this procedure was reported as “A=‘numerical value’ (nanomolar)”

| SMILES | IC50 [µM] |
| --- | --- |
| CCC[C@@H]1NC(=O)[C@H](Cc2c[nH]c3ncccc23)NC(=O)[C@H]([C@@H](C)O)NC(=O)C(C)(C)NC(=O)[C@H](Cc2ccc(O)cc2)NC(=O)[C@H](C(C)(C)C)NC(=O)CCSCc2cccc(c2)CSC[C@@H](C(N)=O)NC(=O)[C@H]([C@@H](C)O)NC(=O)[C@H](CCC)NC(=O)[C@H](Cc2ccc(O)cc2)NC(=O)[C@H](CCC(=O)O)NC1=O [Compound 005] ([Mpa][Tle]Y[Aib]T[Trp(7-aza)][Nva]EY[Nva]TC-NH2; linker 1-12 via mXylylene) | 21 to 50 |
| CCC[C@@H]1NC(=O)[C@H](Cc2c[nH]c3ncccc23)NC(=O)[C@H]([C@@H](C)O)NC(=O)[C@H](Cc2cccnc2)NC(=O)[C@H](Cc2ccc(O)cc2)NC(=O)[C@H](C(C)(C)C)NC(=O)CCSCc2cccc(c2)CSC[C@@H](C(N)=O)NC(=O)[C@H]([C@@H](C)O)NC(=O)[C@H](CCC)NC(=O)[C@H](Cc2ccc(O)cc2)NC(=O)[C@H](CCC(=O)O)NC1=O [Compound 113] ([Mpa][Tle]Y[3Pal]T[Trp(7-aza)][Nva]EY[Nva]TC-NH2; linker 1-12 via mXylylene) | 50 to 100 |
| CCC[C@@H]1NC(=O)[C@H](Cc2c[nH]c3ncccc23)NC(=O)[C@H]([C@@H](C)O)NC(=O)[C@H](Cc2ccccn2)NC(=O)[C@H](Cc2ccc(O)cc2)NC(=O)[C@H](C(C)(C)C)NC(=O)CCSCc2cccc(c2)CSC[C@@H](C(N)=O)NC(=O)[C@H]([C@@H](C)O)NC(=O)[C@H](CCC)NC(=O)[C@H](Cc2ccc(O)cc2)NC(=O)[C@H](CCC(=O)O)NC1=O [Compound 114] ([Mpa][Tle]Y[2Pal]T[Trp(7-aza)][Nva]EY[Nva]TC-NH2; linker 1-12 via mXylylene) | 21 to 50 |
| CCC[C@H](NC(C)=O)C(=O)N[C@H]1CSCc2cccc(c2)CSC[C@@H](C(N)=O)NC(=O)[C@H]([C@@H](C)O)NC(=O)[C@H](CCC)NC(=O)[C@H](Cc2ccc(O)cc2)NC(=O)[C@H](CCC(=O)O)NC(=O)[C@H](CCC)NC(=O)[C@H](C)NC(=O)[C@H]([C@@H](C)O)NC(=O)[C@H](Cc2cnc[nH]2)NC(=O)[C@H](Cc2ccc(O)cc2)NC(=O)[C@H](C(C)(C)C)NC1=O [Compound 230] (Ac-[Nva]C[Tle]YHTA[Nva]EY[Nva]TC-NH2; linker 2-13 via mXylylene) | 50 to 100 |
| CCC[C@@H]1NC(=O)[C@H](Cc2ccc(O)cc2)NC(=O)[C@H](CCC(=O)O)NC(=O)[C@H](Cc2c[nH]c3ncccc23)NC(=O)[C@H]([C@@H](C)O)NC(=O)[C@H](Cc2c[nH]cn2)NC(=O)[C@H](Cc2ccc(O)cc2)NC(=O)[C@H](C(C)(C)C)NC(=O)CCSCc2cccc(c2)CSC[C@@H](C(N)=O)NC(=O)[C@H]([C@@H](C)O)NC1=O [Compound 248] ([Mpa][Tle]YHT[Trp(7-aza)]EY[Nva]TC-NH2; linker 1-11 via mXylylene) | 50 to 100 |
| CCC[C@@H]1NC(=O)[C@H](Cc2ccc(O)cc2)NC(=O)[C@H](CCC(=O)O)NC(=O)[C@H](CCC)NC(=O)[C@H]([C@@H](C)O)NC(=O)[C@H](Cc2c[nH]cn2)NC(=O)[C@H](Cc2ccc(O)cc2)NC(=O)[C@H](C(C)(C)C)NC(=O)CCSCc2ccc(cc2)CSC[C@@H](C(N)=O)NC(=O)[C@H]([C@@H](C)O)NC1=O [Compound 251] ([Mpa][Tle]YHT[Nva]EY[Nva]TC-NH2; linker 1-11 via pXylylene) | 50 to 100 |
| CCC[C@H](NC(C)=O)C(=O)N[C@H]1CSCc2cccc(c2)CSC[C@@H](C(N)=O)NC(=O)[C@H]([C@@H](C)O)NC(=O)[C@H](CCC)NC(=O)[C@H](Cc2ccc(O)cc2)NC(=O)[C@H](C)NC(=O)[C@H](CCC)NC(=O)[C@H](Cc2c[nH]c3ncccc23)NC(=O)[C@H]([C@@H](C)O)NC(=O)[C@H](Cc2cnc[nH]2)NC(=O)[C@H](Cc2ccc(O)cc2)NC(=O)[C@H](C(C)(C)C)NC1=O [Compound 258] (Ac-[Nva]C[Tle]YHT[Trp(7-aza)][Nva]AY[Nva]TC-NH2; linker 2-13 via mXylylene) | 50 to 100 |
| CCC[C@@H]1NC(=O)[C@H](Cc2c[nH]c3ncccc23)NC(=O)[C@H]([C@@H](C)O)NC(=O)[C@H](Cc2c[nH]cn2)NC(=O)[C@H](Cc2ccc(O)cc2)NC(=O)[C@H](C(C)(C)C)NC(=O)CCSCc2cccc(c2)CSC[C@@H](C(N)=O)NC(=O)[C@H]([C@@H](C)O)NC(=O)[C@H](CCC)NC(=O)[C@H](Cc2ccc(F)cc2)NC(=O)[C@H](CCC(=O)O)NC1=O [Compound 266] ([Mpa][Tle]YHT[Trp(7-aza)][Nva]E[Phe(4-F)][Nva]TC-NH2; linker 1-12 via mXylylene) | 1 to 21 |

Results, then the compound that gave them:

| IC50 [µM] | SMILES |
| --- | --- |
| 1 to 21 | CC(=O)N[C@H]1CSCc2cccc(c2)CSC[C@@H](C(N)=O)NC(=O)[C@H]([C@@H](C)O)NC(=O)[C@H](C)NC(=O)[C@H](Cc2ccc(O)cc2)NC(=O)[C@H](CCC(=O)O)NC(=O)[C@H](C)NC(=O)[C@H](Cc2c[nH]c3ncccc23)NC(=O)[C@H]([C@@H](C)O)NC(=O)[C@H](Cc2c[nH]cn2)NC(=O)[C@H](Cc2ccc(O)cc2)NC(=O)[C@H](C(C)(C)C)NC1=O [Compound 242] (Ac-C[Tle]YHT[Trp(7-aza)]AEYATC-NH2; linker 1-12 via mXylylene) |
| 50 to 100 | CCC[C@H](NC(C)=O)C(=O)N[C@H]1CSCc2cccc(c2)CSC[C@@H](C(N)=O)NC(=O)[C@H]([C@@H](C)O)NC(=O)[C@H](CCC)NC(=O)[C@H](Cc2c[nH]c3ncccc23)NC(=O)[C@H](CCC(=O)O)NC(=O)[C@H](CCC)NC(=O)[C@H](Cc2c[nH]c3ncccc23)NC(=O)[C@H]([C@@H](C)O)NC(=O)[C@H](Cc2c[nH]cn2)NC(=O)[C@H](Cc2ccc(O)cc2)NC(=O)[C@H](C(C)(C)C)NC1=O [Compound 243] (Ac-[Nva]C[Tle]YHT[Trp(7-aza)][Nva]E[Trp(7-aza)][Nva]TC-NH2; linker 2-13 via mXylylene) |
| 50 to 100 | CC(=O)N[C@H]1CSCc2cccc(c2)CSC[C@H](C(N)=O)NC(=O)[C@H]([C@@H](C)O)NC(=O)[C@H](C)NC(=O)[C@H](Cc2ccc(O)cc2)NC(=O)[C@H](CCC(=O)O)NC(=O)[C@H](C)NC(=O)[C@H](Cc2c[nH]c3ncccc23)NC(=O)[C@H]([C@@H](C)O)NC(=O)[C@H](Cc2c[nH]cn2)NC(=O)[C@H](Cc2ccc(O)cc2)NC(=O)[C@H](C(C)(C)C)NC1=O [Compound 245] (Ac-C[Tle]YHT[Trp(7-aza)]AEYAT[dC]-NH2; linker 1-12 via mXylylene) |
| 1 to 21 | CCC[C@@H]1NC(=O)[C@H](Cc2c[nH]c3ncccc23)NC(=O)[C@H]([C@@H](C)O)NC(=O)[C@H](Cc2c[nH]cn2)NC(=O)[C@H](Cc2ccc(O)cc2)NC(=O)[C@H](C(C)(C)C)NC(=O)CCSCc2cccc(c2)CSC[C@@H](C(N)=O)NC(=O)[C@H]([C@@H](C)O)NC(=O)[C@H](CCC)NC(=O)[C@H](Cc2ccccc2)NC(=O)[C@H](CCC(=O)O)NC1=O [Compound 256] ([Mpa][Tle]YHT[Trp(7-aza)][Nva]EF[Nva]TC-NH2; linker 1-12 via mXylylene) |
| 50 to 100 | CCC[C@@H]1NC(=O)[C@H](Cc2c[nH]c3ncccc23)NC(=O)[C@H]([C@@H](C)O)NC(=O)[C@H](Cc2c[nH]cn2)NC(=O)[C@H](Cc2ccc(O)cc2)NC(=O)[C@H](C(C)(C)C)NC(=O)CCSCc2cccc(c2)CSC[C@@H](C(N)=O)NC(=O)[C@H]([C@@H](C)O)NC(=O)[C@H](CCC)NC(=O)[C@H](Cc2ccc3[nH]ncc3c2)NC(=O)[C@H](CCC(=O)O)NC1=O [Compound 257] ([Mpa][Tle]YHT[Trp(7-aza)][Nva]E[X8][Nva]TC-NH2; linker 1-12 via mXylylene) |
| 1 to 21 | CCC[C@@H]1NC(=O)[C@H](Cc2c[nH]c3ncccc23)NC(=O)[C@H]([C@@H](C)O)NC(=O)[C@H](Cc2c[nH]cn2)NC(=O)[C@H](Cc2ccc(O)cc2)NC(=O)[C@H](C(C)(C)C)NC(=O)CCSCc2cccc(c2)CSC[C@@H](C(N)=O)NC(=O)[C@H]([C@@H](C)O)NC(=O)[C@H](CC2CC2)NC(=O)[C@H](Cc2ccc(O)cc2)NC(=O)[C@H](CCC(=O)O)NC1=O [Compound 262] ([Mpa][Tle]YHT[Trp(7-aza)][Nva]EY[Ala(cPr)]TC-NH2; linker 1-12 via mXylylene) |
